# Measured values published in US9120744B2, “Plasminogen activator inhibitor-1 inhibitors and methods of use thereof to modulate lipid metabolism” (THE REGENTS OF THE UNIVERSITY OF MICHIGAN, priority 2007, dated 2015).
# Structures can show the parent of a compound that is named as a salt.
# Molecular target: recombinant active human PAI-1 (Homo sapiens (Human), UniProt P05121)
# Assay: β-trypsin screening assay for PAI-1 inhibitors;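 further: fluorogenic readout with PAI-1 and β-trypsin at 10:1 molar ratio, untreated PAI-1 wells set as 100% PAI-1 activity and β-trypsin alone as 0%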
# Type: biochemical
# Conditions: 10 μM compound; hit = more than 3 standard deviations above control
# recombinant active human PAI-1, sequence (P05121 24-402): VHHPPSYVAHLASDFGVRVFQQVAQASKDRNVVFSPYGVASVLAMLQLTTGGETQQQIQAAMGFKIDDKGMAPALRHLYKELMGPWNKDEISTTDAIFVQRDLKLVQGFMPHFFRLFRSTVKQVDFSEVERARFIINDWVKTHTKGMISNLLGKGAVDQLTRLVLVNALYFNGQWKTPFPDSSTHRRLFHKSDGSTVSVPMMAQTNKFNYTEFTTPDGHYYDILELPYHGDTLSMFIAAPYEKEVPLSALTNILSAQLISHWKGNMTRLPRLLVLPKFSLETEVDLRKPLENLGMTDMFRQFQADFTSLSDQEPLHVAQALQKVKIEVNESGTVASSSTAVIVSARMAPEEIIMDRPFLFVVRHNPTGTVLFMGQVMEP
row,SMILES,screening hit: restoration of β-trypsin activity
1,CN1[C@H]2CCC[C@H]1CC(NC(=O)c1nn(C)c3ccccc13)C2.Cl (stereo partly shown) [GRANISETRON HCl],demonstrate PAI-1 inhibitor activity
2,Oc1cc2c(cc1O)C1c3ccc(O)c(O)c3OCC1(O)C2 (stereo not shown) [HAEMATOXYLIN],demonstrate PAI-1 inhibitor activity
3,CC1=NCCc2c1[nH]c1cc(O)ccc21.Cl [HARMALOL HYDROCHLORIDE],demonstrate PAI-1 inhibitor activity
4,O=C1C=C2CC3(O)COc4c(ccc(O)c4O)C3=C2C=C1O (stereo not shown) [HEMATEIN],demonstrate PAI-1 inhibitor activity
5,O=c1cc(-c2cc(O)c(O)c(O)c2)oc2cc(O)cc(O)c12 [HIERACIN],demonstrate PAI-1 inhibitor activity
6,"COc1cc(-c2coc3cc(OCc4ccccc4)c(OC)c(O)c3c2=O)cc(OCc2ccccc2)c1OC [IRIGENIN, DIBENZYL ETHER]",demonstrate PAI-1 inhibitor activity
7,O=c1c(-c2cc(O)c(O)c(O)c2)coc2cc(O)c(O)c(O)c12 [IRIGENOL],demonstrate PAI-1 inhibitor activity
8,CC(=O)Oc1cc(-c2coc3cc(OC(C)=O)c(OC(C)=O)c(OC(C)=O)c3c2=O)cc(OC(C)=O)c1OC(C)=O [IRIGINOL HEXAACEATATE],demonstrate PAI-1 inhibitor activity
9,COc1ccc(-c2coc3cc(O)ccc3c2=O)c(O)c1O [KOPARIN],demonstrate PAI-1 inhibitor activity
10,CCOC(=O)C1=C(C)N=C(C)/C(=C(/O)OCC)C1c1ccccc1/C=C/C(=O)OC(C)(C)C (stereo not shown) [LACIDIPINE],demonstrate PAI-1 inhibitor activity
11,C=C[C@@](C)(O)CC[C@H]1C(=C)C[C@H](O)[C@H]2C(C)(C)CCC[C@]12C [LARIXOL],demonstrate PAI-1 inhibitor activity
12,CC(C)(C)NC[C@H](O)c1ccc(O)c(CO)c1 [LEVALBUTEROL HYDROCHLORIDE],demonstrate PAI-1 inhibitor activity
13,CCOC(=O)N1CCC(=C2c3ccc(Cl)cc3CCc3cccnc32)CC1 [LORATADINE],demonstrate PAI-1 inhibitor activity
14,CC(C(=O)[O-])c1ccc(CC2CCCC2=O)cc1.[Na+] (stereo not shown) [LOXOPROFEN SODIUM],demonstrate PAI-1 inhibitor activity
15,CC12CC3CC(C)(C1)CC(N)(C3)C2 [MEMANTINE HYDROCHLORIDE],demonstrate PAI-1 inhibitor activity
16,C=C1c2cccc(O)c2C(=O)C2=C(O)[C@]3(O)C(=O)C(C(N)=O)=C(O)[C@@H](N(C)C)[C@@H]3[C@@H](O)[C@H]12 [METHACYCLINE HYDROCHLORIDE],demonstrate PAI-1 inhibitor activity
17,NC[C@H](O)c1ccc(O)c(O)c1 [NOREPINEPHRINE],demonstrate PAI-1 inhibitor activity
18,Cc1cc(O)c(C=O)c2c1C(=O)Oc1c(C)c(O)c3c(c1O2)C(O)OC3=O (stereo not shown) [NORSTICTIC ACID],demonstrate PAI-1 inhibitor activity
19,CN(C)C(=S)SSC(=S)N(C)C [NSC 1771],demonstrate PAI-1 inhibitor activity
20,CCc1oc2ccccc2c1C(=O)c1cc(Br)c(O)c(Br)c1 [NSC 85433],demonstrate PAI-1 inhibitor activity
21,O=c1c(O)c(-c2ccc(O)c(O)c2)oc2cc(O)ccc12 [NSC 407010],demonstrate PAI-1 inhibitor activity
22,NC(=O)N1c2ccccc2CC(=O)c2ccccc21 [OXCARBAZEPINE],demonstrate PAI-1 inhibitor activity
